Assay results taken from patent US7622498B2, “Sugar derivatives comprising oxiranes or α, β-unsaturated δ-lactones, process for their preparation and their utilisation as pesticides” (Instituto Politecnico de Santarem/Escoal Superior Agraria, priority 2004, dated 2009).
≈ marks a conversion by molar mass, not a printed value. Entries after “also recorded” stand apart in the source; their conditions may differ.

Key:
[1] = tested on: brine shrimp A. salina larvae; assay: Method F: immersion bioassay of brine shrimp larvae in brine; format: in vivo; conditions: brine shrimp larvae immersed in brine, 24 hour mortalities
Description: (§1) Immersion Bioassay of Brine Shrimp A. salina Larvae in Brine
(§2) Freshly hatched brine shrimps were prepared by adding aquarium brine shrimp eggs to salt water (15 g sea salt per litre water). The following day hatchlings were separated from eggs and empty egg cases, using their phototropic movement and a Pasteur pipette.
(§3) Into each of a set of small glass vials was pipetted 195 μL of brine containing 5 shrimp larvae, using a micropipette. The solution of the test compound in 5 μL acetone was added, the vial closed and kept at 30±1° C. for observation.
(§4) Dead and alive shrimps were counted, at 1 and 24 hours after treatment, using a microscope. Six concentrations and a control were used with 10 shrimps treated.
(§5) A blank test was performed for comparison of the results.
(§6) Dosages used in insect treatments were based upon the amount of compound applied to each insect. For the shrimps the final concentrations of the compounds in the immersion brine were used.
(§7) The 24 hour mortalities were used to calculate the LD50/LC50 using regression analysis of the probability percent mortality (probit) against log dose/concentration.^30 This was calculated using PoloPC software (LeOra Software, Berkeley, Calif., 1994).

[2] = tested on: adult fruit fly (D. melanogaster); assay: Method A: topical treatment of adult fruit fly; format: in vivo, Drosophila melanogaster; conditions: for LD50: Method A, topical 0.2 μL acetone solution, adult fruit flies, 24 hour mortalities, probit regression; for activity against adult fruit flies (in words): topical treatment, from LD50 values
Description: Topical Treatment of Adult Fruit Fly (D. melanogaster)
A culture of fruit flies (D. melanogaster) was used in the production of adult flies (approx 0.22 mg) of about seven days.
Serial dilutions of the compounds were prepared in acetone, and volumes of approximately 0.2 μL were applied to the ventral surface of each insect, using a calibrated PAX 100 microapplicator and a 1 mL syringe.
The fruit flies, in groups of 5, were anaesthetised using carbon dioxide. Prior to recovery the flies were placed in a containing vial and kept at 30±1° C., for observations of mortality at 1, 2, 3 and 24 hours after treatment.
For this purpose solutions of 6 different concentrations and a control were employed in groups of 12 and 20 insects. Control mortalities were normally zero but occasionally rose to 5-10%.
as §6, §7
In the table are also given the confidence intervals at 95% for the LD50 values, the number of organisms tested, the slope obtained by linear regression and the index g (of significance). Data are considered satisfactory if g is substantially less than 1 and seldom greater than 0.4.^31
As regards the confidence intervals for LD50, the indication (90%) means that the intervals were calculated at 90% and not at 95%.

adult fruit flies = assay: Method B: second method for topical treatment of adult fruit flies; format: in vivo, Drosophila melanogaster; conditions: topical 1 μL acetone solution, 24 hour mortalities
Description: Second Method for Topical Treatment of Adult Fruit Flies
Different dilutions of the compounds in acetone were prepared and applied to individual fruit flies using a Gilson piston micropipette.
Individual flies were held in padded forceps and 1 μL of acetone solution was applied. The acetone was allowed to evaporate before placing the fly into the vial for observation, kept at 30±1° C., following the standard methodology.
as §6, §7

[3] = tested on: glasshouse white fly (T. vaporariorum); assay: Method G: foliar treatment of glasshouse white fly on tomato leaves; format: in vivo, Trialeurodes vaporariorum; conditions: for % Control of White Fly: sprayed on infested tomato leaves, 14 hours; for insecticidal efficacy against adult white fly (in words): spraying infested tomato leaves
Description: Method G Foliar Treatment of Glasshouse White Fly (T. vaporariorum) Seedlings of tomato plants were infested with adult white fly. Selected leaves of the tomato plants were excised and carefully trimmed to 3 leaflets without disturbing the infestation. These were placed in glass tubes containing water and the leaflets were then sprayed on both sides with a small sprayer delivering for each one 200 μL of a solution of the test compound dissolved in 30% acetone in water. Controls were sprayed with the solvent alone. Counts of insects on the individual leaflets were made immediately after spraying and then at 14 hours following. Where single dose treatments were used (in the case of whitefly assays), no statistics are available and the results are expressed as percent effect. Five compounds were tested, which were applied spraying 600 μL of each compound solution (prepared according to method G) on of leaves of tomato plants infested with a known number of adult whitefly. After 14 hours, the number of dead insects (or eventually of insects that disappeared) was counted. These assays were performed at room temperature, between 20 and 25° C.

fruit fly larvae = assay: Method D: topical treatment of fruit fly larvae; format: in vivo, Drosophila melanogaster; conditions: for LD50: Method D, topical 0.2 μL acetone solution, second and third instar fruit fly larvae; for toxicity to fruit fly larvae compared with adult flies (in words): topical treatment of larvae, from LD50 values
Description: Topical Treatment of Fruit Fly Larvae
Fruit fly larvae were separated from the growing medium and second and third instars were topically treated with 0.2 μL acetone solutions of the compounds using a PAX microapplicator.
Larvae were held in padded forceps for dosing and then placed on moistened filter paper, at 30±1° C., for observation.
as §6, §7

[4] = tested on: house fly adults (M. domestica); assay: Method E: topical treatment of house fly adults; format: in vivo, Musca domestica; conditions: topical 1 μL acetone solution, adult house flies, strain Cooper
Description: Topical Treatment of House Fly Adults (M. domestica)
A culture of an insecticide-susceptible strain, Cooper, was established. Three-day-old adult house flies (body weight about […]) were anaesthetised with carbon dioxide. Using the PAX microapplicator, a volume of 1 μL of acetone solution of the test compounds was applied to the dorsal cuticle, holding the fly in padded forceps.
Groups of flies were placed into closed vials, kept at 30±1° C., for observation.
as §6, §7

[5] = Method F: immersion bioassay of brine shrimp larvae in brine; format: in vivo; conditions: Artemia salina (brine shrimp) larvae, in vivo, brine shrimp larvae immersed in brine, 24 hour mortalities
Description: as §1, §2, §3, §4, §5, §6, §7

| Molecule | LC50 [1] [µg/mL] | LD50 [2] | activity against adult fruit flies (in words) [2] | other results |
| --- | --- | --- | --- | --- |
| CC1=C[C@H]([C@H]2O[C@@H]3OC(C)(C)O[C@@H]3[C@H]2OCc2ccccc2)OC1=O [Compound 1, 3-O-benzyl-6,7-dideoxy-1,2-O-isopropylidene-7-methyl-α-D-gluco-oct-6-enefuranurono-8,5-lactone] | 100.62 (≈ 290 µM) | 0.00002 μg/insect | extremely active |  |
| CC1=C[C@H]([C@H]2O[C@@H]3OC(C)(C)O[C@@H]3[C@@H]2OCc2ccccc2)OC1=O [Compound 2, 3-O-benzyl-6,7-dideoxy-1,2-O-isopropylidene-7-methyl-α-D-alo-oct-6-enefuranurono-8,5-lactone] | 64.30 (≈ 186 µM) | 2.27 × 10^−6 μg/insect | extremely active | LD50 (adult fruit flies): 0.00398 μg/insect |
| CC1(C)O[C@H]2O[C@H]([C@H]3C=CC(=O)O3)[C@@H](OCc3ccccc3)[C@H]2O1 [Compound 3, 3-O-benzyl-6,7-dideoxy-1,2-O-isopropylidene-α-D-alo-oct-6-enefuranurono-8,5-lactone] | 144.71 (≈ 435 µM) | 5.02 × 10^−6 μg/insect | extremely active | % Control of White Fly ([3]; concentration 1.3 μg/mL): 0% |
| CC1(C)O[C@H]2O[C@H]([C@H]3C=CC(=O)O3)[C@H](OCc3ccccc3)[C@H]2O1 [Compound 4, 3-O-benzyl-6,7-dideoxy-1,2-O-isopropylidene-α-D-gluco-oct-6-enefuranurono-8,5-lactone] | 358.92 (≈ 1080 µM) | 0.00012 μg/insect | high toxicity against adult fruit flies | % Control of White Fly ([3]; concentration 2.5 μg/mL): 50%; insecticidal efficacy against adult white fly (in words) [3]: show efficacy as insecticides; also recorded: promising for activity against the white fly |
| CC(=O)OC[C@H]1OC(=O)C(Br)=C[C@@H]1OC(C)=O [Compound 5, 4,6-di-O-acetyl-2-bromo-2,3-dideoxy-D-erythro-hex-2-enone-1,5-lactone] | 38.36 (≈ 125 µM) | 0.00016 μg/insect |  | LD50 (fruit fly larvae): 4.75 μg/insect; toxicity to fruit fly larvae compared with adult flies (in words) (fruit fly larvae): less toxic for larvae than for adult flies; LD50 [4]: 1.065 μg/insect |
| CC1(C)OC2OC(C3CC(C)([Se]c4ccccc4)C(=O)O3)C(OCc3ccccc3)C2O1 [Compound 8, (7R)-/(7S)-3-O-Benzyl-6,7-dideoxy-1,2-O-isopropylidene-7-methyl-7-phenylselenyl-α-D-gluco-octofuranurono-8,5-lactone] | 220.41 (≈ 438 µM) | 0.00037 μg/insect |  | toxicity to fruit fly larvae compared with adult flies (in words) (fruit fly larvae): less toxic for larvae than for adult flies; LD50 [4]: 0.644 μg/insect |
| CO[C@H]1O[C@H]([C@@H]2CO2)[C@@H]2O[C@H]12 [Compound 9, Methyl 2,3:5,6-Dianhydro-β-L-gulofuranoside] | 671.50 (≈ 4250 µM) | 0.00003 μg/insect | extremely active; also recorded: high toxicity against adult fruit flies | % Control of White Fly ([3]; concentration 2.5 μg/mL): 85%; insecticidal efficacy against adult white fly (in words) [3]: show efficacy as insecticides; also recorded: promising for activity against the white fly |
| O=[N+]([O-])NC1=NCCN1Cc1ccc(Cl)nc1 [Imidacloprid, imidacloprid, reference compound] |  | 0.01253 μg/insect |  | LC50 at 24 h [5]: 0.0312 µg/mL (≈ 0.122 µM) |
| (7R)-/(7S)-3,6,7-Trideoxy-1,2-O-isopropylidene-7-methyl-7-phenylselenyl-α-D-ribo-octofuranurono-8,5-lactone [Compound 7] | 261.04 | 0.0002 μg/insect |  | LD50 (fruit fly larvae): 0.968 μg/insect; % Control of White Fly ([3]; concentration 4.8 μg/mL): 0% |
| methyl (7R)-/(7S)-2,3-anhydro-6,7-dideoxy-7-methyl-7-phenylselenyl-α-gulo-octofuranurono-8,5-lactone [Compound 6] | 125.48 | 0.00015 μg/insect |  | % Control of White Fly ([3]; concentration 1.3 μg/mL): 0% |
